In PubChem BioAssay AID256 (DTP/NCI, 2004):
Inconclusive results and toxic doses are left out. How the source made its calls: active means survival T/C of 150% or more; inactive means T/C below 125% in these data.

Tested on: CD2F1 mice, L1210 leukemia ip, survival T/C
Test: NCI In Vivo Anticancer Drug Screen. Data for tumor model L1210 Leukemia (intraperitoneal) in CD2F1 (CDF1) mice
Settings: higher = longer survival
Outline: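 Ratio T/C, where T is the treated-group value and C the vehicle-dosed control value, from mice implanted with a transplantable tumor.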

[1] = endpoint: mean survival time, dose: 25.0 mg/kg/injection, schedule: Q01DX009 (ip), vehicle: water
[2] = endpoint: mean survival time, dose: 50.0 mg/kg/injection, schedule: Q01DX009 (ip), vehicle: water
[3] = endpoint: mean survival time, dose: 100.0 mg/kg/injection, schedule: Q01DX009 (ip), vehicle: saline with Tween-80
[4] = endpoint: mean survival time, dose: 200.0 mg/kg/injection, schedule: Q01DX009 (ip), vehicle: saline with Tween-80
[5] = endpoint: mean survival time, dose: 400.0 mg/kg/injection, schedule: Q01DX009 (ip), vehicle: saline with Tween-80
[6] = endpoint: mean survival time, dose: 100.0 mg/kg/injection, schedule: Q01DX001 (ip), vehicle: saline with Tween-80
[7] = endpoint: mean survival time, dose: 200.0 mg/kg/injection, schedule: Q01DX001 (ip), vehicle: saline with Tween-80
[8] = endpoint: mean survival time, dose: 400.0 mg/kg/injection, schedule: Q01DX001 (ip), vehicle: saline with Tween-80

Measured: T/C

NC(N)=NO
inactive: [1] 113 % of control | [2] 124 % of control | endpoint: mean survival time, dose: 200.0 mg/kg/injection, schedule: Q01DX009 (ip), vehicle: water 117 % of control | endpoint: mean survival time, dose: 300.0 mg/kg/injection, schedule: Q01DX009 (ip), vehicle: water 116 % of control | endpoint: mean survival time, dose: 500.0 mg/kg/injection, schedule: Q01DX009 (ip), vehicle: water 124 % of control

Cc1cc(=O)[nH]c(=S)[nH]1.[Pd]
inactive: endpoint: mean survival time, dose: 3.12 mg/kg/injection, schedule: Q04DX003 (ip), vehicle: saline 103 % of control | endpoint: mean survival time, dose: 6.25 mg/kg/injection, schedule: Q04DX003 (ip), vehicle: saline 108 % of control | endpoint: mean survival time, dose: 12.5 mg/kg/injection, schedule: Q04DX003 (ip), vehicle: saline 105 % of control | endpoint: mean survival time, dose: 25.0 mg/kg/injection, schedule: Q04DX003 (ip), vehicle: saline 100 % of control | endpoint: mean survival time, dose: 50.0 mg/kg/injection, schedule: Q04DX003 (ip), vehicle: saline 102 % of control | endpoint: mean survival time, dose: 100.0 mg/kg/injection, schedule: Q04DX003 (ip), vehicle: saline 102 % of control | endpoint: mean survival time, dose: 200.0 mg/kg/injection, schedule: Q04DX003 (ip), vehicle: saline 100 % of control

O=C1Cc2c(nc[nH]c2=O)N1
inactive: endpoint: median survival time, dose: 50.0 mg/kg/injection, schedule: Q01DX005 (ip), vehicle: saline 101 % of control | endpoint: median survival time, dose: 100.0 mg/kg/injection, schedule: Q01DX005 (ip), vehicle: saline 97 % of control | endpoint: median survival time, dose: 200.0 mg/kg/injection, schedule: Q01DX005 (ip), vehicle: saline 92 % of control

[O-][n+]1c(Cl)nc(Cl)c(Cl)c1C(Cl)(Cl)Cl
inactive: endpoint: mean survival time, dose: 12.5 mg/kg/injection, schedule: Q04DX003 (ip), vehicle: other 111 % of control | endpoint: mean survival time, dose: 25.0 mg/kg/injection, schedule: Q04DX003 (ip), vehicle: other 103 % of control

COC(=O)/C=C/c1ccc([N+](=O)[O-])cc1
inactive: [3] 100 % of control | [4] 100 % of control | [5] 105 % of control

CS(=O)(=O)OCC1NC(=O)C(COS(C)(=O)=O)NC1=O (configuration not stated)
inactive: endpoint: mean survival time, dose: 3.13 mg/kg/injection, schedule: Q01DX009 (ip), vehicle: water 103 % of control | endpoint: mean survival time, dose: 6.25 mg/kg/injection, schedule: Q01DX009 (ip), vehicle: water 101 % of control | endpoint: mean survival time, dose: 12.5 mg/kg/injection, schedule: Q01DX009 (ip), vehicle: water 105 % of control | [1] 106 % of control | [2] 101 % of control | endpoint: mean survival time, dose: 100.0 mg/kg/injection, schedule: Q01DX009 (ip), vehicle: water 100 % of control

O=C(O)C(Br)C(Br)c1ccccc1[N+](=O)[O-] (configuration not stated)
inactive: endpoint: mean survival time, dose: 12.5 mg/kg/injection, schedule: Q01DX009 (ip), vehicle: other 96 % of control | endpoint: mean survival time, dose: 25.0 mg/kg/injection, schedule: Q01DX009 (ip), vehicle: other 103 % of control | endpoint: mean survival time, dose: 50.0 mg/kg/injection, schedule: Q01DX009 (ip), vehicle: other 100 % of control | endpoint: mean survival time, dose: 100.0 mg/kg/injection, schedule: Q01DX009 (ip), vehicle: other 102 % of control | endpoint: mean survival time, dose: 200.0 mg/kg/injection, schedule: Q01DX009 (ip), vehicle: other 97 % of control

COC(=N)Cc1ccc(OC)c(OC)c1
inactive: endpoint: mean survival time, dose: 100.0 mg/kg/injection, schedule: Q04DX003 (ip), vehicle: saline with Tween-80 102 % of control | endpoint: mean survival time, dose: 200.0 mg/kg/injection, schedule: Q04DX003 (ip), vehicle: saline with Tween-80 96 % of control | endpoint: mean survival time, dose: 400.0 mg/kg/injection, schedule: Q04DX003 (ip), vehicle: saline with Tween-80 94 % of control

O=C(O)/C=C\c1cccc([N+](=O)[O-])c1
inactive: [3] 94 % of control | [4] 103 % of control | [5] 88 % of control

COc1ccc2nc3cc(Cl)ccc3c(N)c2c1
inactive: endpoint: mean survival time, dose: 2.5 mg/kg/injection, schedule: Q01DX009 (ip), vehicle: Klucel (hydroxypropylcellulose) (HPC) 110 % of control | endpoint: mean survival time, dose: 5.0 mg/kg/injection, schedule: Q01DX009 (ip), vehicle: Klucel (hydroxypropylcellulose) (HPC) 103 % of control | endpoint: mean survival time, dose: 10.0 mg/kg/injection, schedule: Q01DX009 (ip), vehicle: Klucel (hydroxypropylcellulose) (HPC) 98 % of control

CCOC(=O)C1C(C(=O)OCC)C(C)(C)C1N(C)C (configuration not stated)
inactive: endpoint: mean survival time, dose: 50.0 mg/kg/injection, schedule: Q01DX009 (ip), vehicle: saline with Tween-80 107 % of control | [3] 98 % of control | [4] 98 % of control

CC(=O)Nc1ccc(C)cc1Cl
inactive: [6] 96 % of control | [7] 100 % of control | [8] 93 % of control

O=C(Cl)c1ccccc1/C=C/c1ccc([N+](=O)[O-])cc1
inactive: [6] 105 % of control | [7] 103 % of control | [8] 96 % of control

NC(=O)/C=C/C(=O)NC(=O)Cc1ccccc1
inactive: endpoint: mean survival time, dose: 3.0 mg/kg/injection, schedule: Q01DX009 (ip), vehicle: saline with Tween-80 97 % of control | endpoint: mean survival time, dose: 6.0 mg/kg/injection, schedule: Q01DX009 (ip), vehicle: saline with Tween-80 98 % of control | endpoint: mean survival time, dose: 12.0 mg/kg/injection, schedule: Q01DX009 (ip), vehicle: saline with Tween-80 92 % of control

CCCCCCCC/C=C\CCCCCCCCNP(=O)(OCCCCCCCCCCCC)OCCCCCCCCCCCC
inactive: endpoint: mean survival time, dose: 50.0 mg/kg/injection, schedule: Q04DX002 (ip), vehicle: saline with Tween-80 93 % of control | endpoint: mean survival time, dose: 100.0 mg/kg/injection, schedule: Q04DX002 (ip), vehicle: saline with Tween-80 96 % of control | endpoint: mean survival time, dose: 200.0 mg/kg/injection, schedule: Q04DX002 (ip), vehicle: saline with Tween-80 89 % of control | endpoint: mean survival time, dose: 400.0 mg/kg/injection, schedule: Q04DX002 (ip), vehicle: saline with Tween-80 100 % of control

NCC1CCCC1N (configuration not stated)
inactive: endpoint: mean survival time, dose: 18.8 mg/kg/injection, schedule: Q01DX001 (ip), vehicle: saline 114 % of control | endpoint: mean survival time, dose: 18.8 mg/kg/injection, schedule: Q04DX003 (ip), vehicle: saline 101 % of control | endpoint: mean survival time, dose: 37.5 mg/kg/injection, schedule: Q01DX001 (ip), vehicle: saline 108 % of control | endpoint: mean survival time, dose: 37.5 mg/kg/injection, schedule: Q04DX003 (ip), vehicle: saline 101 % of control | endpoint: mean survival time, dose: 75.0 mg/kg/injection, schedule: Q01DX001 (ip), vehicle: saline 103 % of control | endpoint: mean survival time, dose: 75.0 mg/kg/injection, schedule: Q04DX003 (ip), vehicle: saline 104 % of control

O=c1cc(C(F)(F)F)[nH]c2ccc(F)cc12
inactive: endpoint: mean survival time, dose: 5.0 mg/kg/injection, schedule: Q01DX009 (ip), vehicle: saline with Tween-80 101 % of control | endpoint: mean survival time, dose: 10.0 mg/kg/injection, schedule: Q01DX009 (ip), vehicle: saline with Tween-80 100 % of control | endpoint: mean survival time, dose: 20.0 mg/kg/injection, schedule: Q01DX009 (ip), vehicle: saline with Tween-80 96 % of control

Cn1ncc(C#N)c1N
inactive: endpoint: mean survival time, dose: 100.0 mg/kg/injection, schedule: Q01DX001 (ip), vehicle: Klucel (hydroxypropylcellulose) (HPC) 117 % of control | endpoint: mean survival time, dose: 200.0 mg/kg/injection, schedule: Q01DX001 (ip), vehicle: Klucel (hydroxypropylcellulose) (HPC) 102 % of control | endpoint: mean survival time, dose: 400.0 mg/kg/injection, schedule: Q01DX001 (ip), vehicle: Klucel (hydroxypropylcellulose) (HPC) 102 % of control

CCCCCCCCC(Sc1n[nH]c(=O)[nH]c1=O)C(=O)OCC (configuration not stated)
inactive: endpoint: mean survival time, dose: 12.5 mg/kg/injection, schedule: Q01DX005 (ip), vehicle: distilled water + Tween-80 101 % of control | endpoint: mean survival time, dose: 25.0 mg/kg/injection, schedule: Q01DX005 (ip), vehicle: distilled water + Tween-80 95 % of control | endpoint: mean survival time, dose: 50.0 mg/kg/injection, schedule: Q01DX005 (ip), vehicle: distilled water + Tween-80 95 % of control | endpoint: mean survival time, dose: 100.0 mg/kg/injection, schedule: Q01DX005 (ip), vehicle: distilled water + Tween-80 100 % of control | endpoint: mean survival time, dose: 200.0 mg/kg/injection, schedule: Q01DX005 (ip), vehicle: distilled water + Tween-80 95 % of control

O=[n+]1c2ccccc2n([O-])c2ccccc21.[Cl][Ni][Cl]
inactive: endpoint: median survival time, dose: 1.56 mg/kg/injection, schedule: Q01DX009 (ip), vehicle: saline with Tween-80 98 % of control | endpoint: median survival time, dose: 3.12 mg/kg/injection, schedule: Q01DX009 (ip), vehicle: saline with Tween-80 92 % of control | endpoint: median survival time, dose: 6.25 mg/kg/injection, schedule: Q01DX009 (ip), vehicle: saline with Tween-80 103 % of control | endpoint: median survival time, dose: 12.5 mg/kg/injection, schedule: Q01DX009 (ip), vehicle: saline with Tween-80 109 % of control | endpoint: median survival time, dose: 25.0 mg/kg/injection, schedule: Q01DX009 (ip), vehicle: saline with Tween-80 113 % of control

COC(=O)Nc1nc2ccc(SC)cc2c(=O)[nH]1
inactive: endpoint: median survival time, dose: 25.0 mg/kg/injection, schedule: Q01DX009 (ip), vehicle: Klucel (hydroxypropylcellulose) (HPC) 98 % of control | endpoint: median survival time, dose: 50.0 mg/kg/injection, schedule: Q01DX009 (ip), vehicle: Klucel (hydroxypropylcellulose) (HPC) 98 % of control | endpoint: median survival time, dose: 100.0 mg/kg/injection, schedule: Q01DX009 (ip), vehicle: Klucel (hydroxypropylcellulose) (HPC) 98 % of control | endpoint: median survival time, dose: 200.0 mg/kg/injection, schedule: Q01DX009 (ip), vehicle: Klucel (hydroxypropylcellulose) (HPC) 112 % of control
